In ChEMBL document CHEMBL1135367, “Evaluation of isotryptamine derivatives at 5-HT(2) serotonin receptors” (Bioorg Med Chem Lett, 2002):

Tests used:
[1] = molecular target: T1, 5-hydroxytryptamine receptor 2C (Homo sapiens, UniProt P28335); assay: Binding affinity towards human 5-hydroxytryptamine 2C receptor.
T1 sequence (P28335 whole entry): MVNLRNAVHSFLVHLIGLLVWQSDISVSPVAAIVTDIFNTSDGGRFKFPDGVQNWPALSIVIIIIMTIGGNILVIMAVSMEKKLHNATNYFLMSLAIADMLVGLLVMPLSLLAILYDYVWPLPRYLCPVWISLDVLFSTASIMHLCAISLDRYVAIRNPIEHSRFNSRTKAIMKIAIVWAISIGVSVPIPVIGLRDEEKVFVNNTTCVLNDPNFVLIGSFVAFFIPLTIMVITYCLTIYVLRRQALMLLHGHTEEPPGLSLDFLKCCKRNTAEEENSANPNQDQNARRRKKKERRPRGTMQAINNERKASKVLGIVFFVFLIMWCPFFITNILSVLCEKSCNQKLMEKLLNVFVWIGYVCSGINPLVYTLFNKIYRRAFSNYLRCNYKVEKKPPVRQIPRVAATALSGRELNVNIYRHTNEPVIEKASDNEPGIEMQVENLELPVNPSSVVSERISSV

[2] = molecular target: T2, 5-hydroxytryptamine receptor 2A (Homo sapiens, UniProt P28223); assay: Tested for binding affinity towards 5-hydroxytryptamine 2A receptor
T2 sequence (P28223 whole entry): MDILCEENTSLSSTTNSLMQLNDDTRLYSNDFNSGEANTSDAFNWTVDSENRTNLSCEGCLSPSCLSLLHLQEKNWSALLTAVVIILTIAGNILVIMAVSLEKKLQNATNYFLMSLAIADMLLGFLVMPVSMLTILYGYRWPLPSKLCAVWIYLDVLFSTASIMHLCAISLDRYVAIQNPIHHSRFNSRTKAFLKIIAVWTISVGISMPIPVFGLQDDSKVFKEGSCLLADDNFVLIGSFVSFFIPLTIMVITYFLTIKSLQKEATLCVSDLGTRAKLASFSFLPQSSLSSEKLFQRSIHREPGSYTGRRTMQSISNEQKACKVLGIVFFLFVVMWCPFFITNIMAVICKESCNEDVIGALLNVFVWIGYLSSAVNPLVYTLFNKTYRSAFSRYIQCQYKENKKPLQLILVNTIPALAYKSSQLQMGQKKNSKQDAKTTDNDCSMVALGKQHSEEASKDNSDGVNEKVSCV

[3] = molecular target: T2, 5-hydroxytryptamine receptor 2A; assay: Displacement of [3H]ketanserin from human 5-hydroxytryptamine 2A receptor
[4] = molecular target: Serotonin 2 receptors; 5-HT2a & 5-HT2c (Homo sapiens) (UniProt P28223+P28335); assay: Relative affinity for human 5-HT2C and 5-HT2A receptors; format: protein assay
Sequence of Serotonin 2 receptors; 5-HT2a & 5-HT2c (Homo sapiens) (P28223 whole entry, looked up, one chain of several): as the sequence (P28223 whole entry) above

[5] = molecular target: T2, 5-hydroxytryptamine receptor 2A; assay: Displacement of [3H]DOB from human 5-hydroxytryptamine 2A receptor
[6] = molecular target: T3, 5-hydroxytryptamine receptor 2A (Rattus norvegicus, UniProt P14842); assay: Tested for binding affinity towards rat 5-hydroxytryptamine 2A receptor using [3H]ketanserin as radioligand
T3 sequence (P14842 whole entry): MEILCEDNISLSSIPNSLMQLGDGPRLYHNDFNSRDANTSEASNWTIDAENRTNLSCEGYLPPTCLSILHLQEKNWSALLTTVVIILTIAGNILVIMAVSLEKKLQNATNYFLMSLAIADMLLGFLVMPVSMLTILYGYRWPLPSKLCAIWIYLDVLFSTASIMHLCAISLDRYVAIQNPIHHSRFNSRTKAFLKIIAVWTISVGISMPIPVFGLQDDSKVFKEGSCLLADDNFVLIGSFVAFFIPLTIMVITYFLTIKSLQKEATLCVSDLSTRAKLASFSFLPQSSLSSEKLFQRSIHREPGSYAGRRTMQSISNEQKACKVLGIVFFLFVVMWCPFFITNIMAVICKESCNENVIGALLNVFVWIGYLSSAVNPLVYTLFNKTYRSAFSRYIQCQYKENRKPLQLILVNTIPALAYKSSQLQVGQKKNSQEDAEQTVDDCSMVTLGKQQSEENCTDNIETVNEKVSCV

[7] = molecular target: T1, 5-hydroxytryptamine receptor 2C; assay: Tested for binding affinity towards human 5-hydroxytryptamine 2C receptor using [3H]5-HT as radioligand
[8] = molecular target: T1, 5-hydroxytryptamine receptor 2C; assay: Tested for binding affinity towards human 5-hydroxytryptamine 2C receptor using [3H]DOB as radioligand
[9] = molecular target: T1, 5-hydroxytryptamine receptor 2C; assay: Tested for binding affinity towards human 5-hydroxytryptamine 2C receptor using [3H]mesulergine as radioligand
[10] = molecular target: T2, 5-hydroxytryptamine receptor 2A; assay: Tested for binding affinity towards human 5-hydroxytryptamine 2A receptor using [3H]DOB as radioligand
[11] = molecular target: T2, 5-hydroxytryptamine receptor 2A; assay: Tested for binding affinity towards human 5-hydroxytryptamine 2A receptor using [3H]5-HT as radioligand
[12] = molecular target: T3, 5-hydroxytryptamine receptor 2A; assay: Tested for binding affinity towards rat 5-hydroxytryptamine 2A receptor using [3H]DOB as radioligand
[13] = molecular target: T1, 5-hydroxytryptamine receptor 2C; assay: Tested for binding affinity towards 5-HT2c receptor

Ki [3] [µM] | Selectivity [4] | Ki [5] [µM] | Compound | Ki [1] [µM] | further results
0.058 | 7 | 0.08 | Clc1ccc2cc3n(c2c1)CCNC3 | 0.56 | 
5.83 | 10.7 | 0.93 | COc1ccc2c(c1)cc1n2CCNC1 | 9.93 | 
1 | 6.6 | 0.3 | COc1cccc2cc3n(c12)CCNC3 | 1.99 | 
0.13 | 5.5 | 0.06 | COc1c2n(c3ccc(Cl)cc13)CCNC2 | 0.33 | 
0.63 | 1.6 | 0.33 | Clc1cccc2cc3n(c12)CCNC3 | 0.52 | 
1.04 | 7.5 | 0.635 | c1ccc2c(c1)cc1n2CCNC1 | 4.78 | 
1.67 | 4.6 | 0.32 | Clc1ccc2c(c1)cc1n2CCNC1 | 1.46 | 
1.25 |  |  | Cc1c2n(c3ccc(Cl)cc13)CCNC2 |  | Ki [13]: 0.45 µM
5.19 | 4 | 1.3 | COc1ccc2cc3n(c2c1)CCNC3 | 5.16 | 

More lines, now with the values behind:

Compound | Ki [3] [µM] | Selectivity [4] | Ki [5] [µM] | Ki [1] [µM] | further results
CC(CN)n1ccc2ccc3ccccc3c21 (stereo not given) |  |  |  | > 10 | Ki [2]: 4.3 µM
CC(N)Cn1ccc2ccc3ccccc3c21 (stereo not given) |  |  |  | 0.042 | Ki [2]: 0.038 µM
CC(N)Cc1c[nH]c2ccc3ccccc3c12 (stereo not given) |  |  |  | 0.009 | Ki [2]: 0.003 µM
c1ccc2c(c1)nc1n2CCNC1 | > 10 |  | > 10 | > 10 | 
CN(C)CCn1ccc2cc(F)c(F)cc21 | 0.64 | 1.3 | 0.23 | 0.3 | 
C[C@H](N)Cn1ccc2cc(F)c(F)cc21 |  | 5.7 |  | 0.085 | Ki [6]: 0.32 µM; Ki [7]: 0.0038 µM; Ki [8]: 0.0039 µM; Ki [9]: 0.085 µM; Ki [10]: 0.039 µM; Ki [11]: 0.012 µM; Ki [12]: 0.015 µM
COc1ccc2ccn(CCN(C)C)c2c1 | 1.04 |  |  | 0.49 | 
CN(C)CCn1ccc2ccccc21 | 0.6 | 1.1 | 0.65 | 0.72 | 
COc1ccc2c(ccn2CCN(C)C)c1 | > 10 |  | > 10 | > 10 | 
